In data set [1] the test system is two-spotted mite (Tetranychus urticae Koch). Briefly: whole plant or invertebrate. The settings on record: foliar, read-out: Biological Activity in LD50's: Mite. How it is done:
(§1) The thus-prepared stock suspension contained 0.5 percent by weight of compound. The test concentrations in parts per million by weight employed in the tests described hereinbelow were obtained by appropriate dilutions of the stock suspension with water. The test procedures were as follows:
Adults and nymphal stage of the two-spotted mite (Tetranychus urticae Koch), reared on Tendergreen bean plants at a temperature of 80±5° F. and at a relative humidity of 50±5 percent, were the test organisms. Infested leaves from a stock culture were placed on the primary leaves of two bean plants six to eight inches in height, growing in a two-and-a-half inch clay pot. 150-200 Mites, a sufficient number for testing, transferred from the excised leaves to the fresh plants in a period of twenty-four hours. Following the twenty-four hour transfer period, the excised leaves were removed from the infested plants. […] The potted plants (one pot per compound) were placed on a revolving turntable and sprayed with 100-110 milliliters of test compound formulation by use of a DeVilbiss spray gun at 40 psig. air pressure. This application, which lasted 25 seconds, was sufficient to wet the plants to run-off. As a control, 100-110 milliliters of a water solution containing acetone and emulsifier in the same concentrations as the test compound formulation, but containing no test compound, were also sprayed on infested plants. The sprayed plants were held at a temperature of 80±5° F. and a 50±5 percent relative humidity for six days, after which a mortality count of motile forms was made. Microscopic examination for motile forms was made on the leaves of the test plants. Any individual which was capable of locomotion upon prodding was considered living.
(§2) In these tests the pesticidal activity of the compounds at the indicated dosage rate against aphid, mite, Southern Armyworm (SA), Mexican Bean Beetle (MBB), and house fly was rated as follows:
(§3) Several of the unsymmetrical bis-carbamoyl sulfide compounds of this invention were tested against related known compounds.

Data set [2] relates to bean aphid (Aphis fabae Scop.). Briefly: whole plant or invertebrate. As to conditions: foliar, read-out: Biological Activity in LD50's: Aphid. How it is done: as §1
Adults and nymphal stages of the bean aphid (Aphis fabae Scop.) reared on potted dwarf nasturtium plants at 65°-70° F. and 50-70 percent relative humidity, consistuted with test insects. For testing purposes, the number of aphids per pot was standardized to 100-150 by trimming plants containing excess aphids.
The potted plants (one pot per compound tested) infested with 100-150 aphids, were placed on a revolving turntable and sprayed with 100-110 milliliters of test compound formulation by use of a DeVilbiss spray gun set at 40 psig. air pressure. This application, which lasted 25 seconds, was sufficient to wet the plants to run-off. As a control, 100-110 milliliters of a water-acetone-emulsifier solution containing no test compound were also sprayed on infested plants. […] Temperature and humidity in the test room during the 24 hour holding period were 65°-70° F. and 50-70 percent, respectively. Aphids which fell onto the paper and were unable to remain standing after being uprighted were considered dead. Aphids remaining on the plants were observed closely for movement and those which were unable to move the length of the body upon stimulation by prodding were considered dead. Percent mortality was recorded for various concentration levels.
as §2, §3

Data set [3] deals with southern armyworm (Spodopera eridania, (Cram.)). Briefly: whole plant or invertebrate. The settings on record: Spodoptera eridania, read-out: Biological Activity in LD50's: Southern Armyworm. How it is done:
as §1
Larvae of the southern armyworm (Spodopera eridania, (Cram.)), reared on Tendergreen bean plants at a temperature of 80±5° F. and a relative humidity of 50±5 percent, constituted the test insects.
Potted Tendergreen bean plants of standard height and age were placed on a revolving turntable and sprayed with 100-110 milliliters of test compound formulation by use of a DeVilbiss spray gun set at 10 psig air pressure. This application, which lasted 25 seconds, was sufficient to wet plants to run-off. As a control, 100-110 milliliters of a water-acetone-emulsifier solution containing no test compound were also sprayed on infested plants. When dry, the paired leaves were separated and each one was placed in a 9 centimeter Petri dish lined with moistened filter paper. Five randomly selected larvae were introduced into each dish and the dishes were closed. The closed dishes were labeled and held at 80°-85° F. for three days. Although the larvae could easily consume the whole leaf within twenty-four hours, no more food was added. Larvae which were unable to move the length of the body, even upon stimulation by prodding, were considered dead. Percent mortality was recorded for various concentration levels.
as §2, §3

Data set [4] concerns Mexican bean beetle (Epilachna varivestis, Muls.). Briefly: whole plant or invertebrate. As to conditions: read-out: Biological Activity in LD50's: MBB. How it is done:
as §1
Fourth instar larvae of the Mexican bean beetle (Epilachna varivestis, Muls.), reared on Tendergreen bean plants at a temperature of 80±5° F. and 50±5 percent relative humidity, were the test insects.
Potted Tendergreen bean plants of standard height and age were placed on a revolving turntable and sprayed with 100-110 milliliters of test compound formulation by use of a DeVilbiss strapy gun set at 10 psig air pressure. This application, which lasted 25 seconds, was sufficient to wet plants to run-off. As a control, 100-110 milliliters of a water-acetone-emulsifier solution containing no test compound were also strayed on infested plants. When dry, the paired leaves were separated and each was placed in a 9 centimeter Petri dish lined with moistened filter paper. Five randomly selected larvae were introduced into each dish, and the dishes were closed. The closed dishes were labeled and held at a temperature of 80±5° F. for three days. Although the larvae could easily consume the leaf within 24 to 48 hours, no more food was added. Larvae which were unable to move the length of the body, even upon stimulation, were considered dead.
as §2, §3

In data set [5] the test system is house flies (Musca domestica, L.). Kind of data set: whole plant or invertebrate. As to conditions: read-out: Biological Activity in LD50's: Housefly.
Excerpt: as §1
The flies were immobilized individuals, males and females, were transferred to a cage consisting of a standard food strainer about five inches in diameter which was inverted over a wrapping-paper-covered surface. […] Ten milliliters of the test formulation were added to a souffle cup containing a one-inch square of an absorbent cotton pad. This bait cup was introduced and centered on the blotting paper under the food strainer prior to admitting the anesthetized flies. The caged flies were allowed to feed on the bait for twenty-four hours, at a temperature of 80±5° F. and the relative humidity of 50±5 percent.
as §2, §3

For another data set, the system named is Bean. Kind of data set: Phytotoxicity Test, bean. The settings on record: 2500 ppm spray, ten days.
The subject of a further data set is Tom. Kind of data set: Phytotoxicity Test, tomato. The settings on record: 2500 ppm spray, ten days.
Data set [6] relates to root-knot nematode, Meloidogyne incognita var. acrita. Briefly: Nematocide Test. Also: key: 1: severe galling, equal to untreated plants; 2: moderate galling; 3: light galling; 4: very light galling; 5: no galling, perfect control. The class given is in vivo. The settings on record: 3.33 m.g. per jar; cucumber, approximately 3 weeks. The procedure, abridged:
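Larvae hatched in soil inoculated with chopped infested cucumber roots (one week, room temperature), then treated with acetone/emulsifier/water formulation, primary screen 3.33 mg compound per jar, and held capped 48 h. Soil then potted and sown to cucumber for about 3 weeks; root galling rated visually.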

Data set [7] is described as follows: Mammalian Toxicity, peroral toxicity to rat. It is filed as in vivo. As to conditions: in vivo, po, read-out: A.O. Rat LD50. How it is done:
(§4) Certain compounds were also evaluated to determine their peroral toxicity to mammals by conventional methods. The representative animal selected for this experiment was the rat.

A further data set has as its system Corn. Kind of data set: Phytotoxicity Test, corn. As to conditions: 2500 ppm spray, ten days.
The next data set concerns Soy. Kind of data set: Phytotoxicity Test, soy. As to conditions: 2500 ppm spray, ten days.
Another data set concerns Cotton. Briefly: Phytotoxicity Test, cotton. The settings on record: 2500 ppm spray, ten days.
A further data set relates to rat. Briefly: Mammalian Toxicity, peroral toxicity to rat. It is filed as in vivo. How it is done: as §4

Converted amounts (≈) assume the structure as drawn.

Description for Cotton: (§5) Experiments were also conducted to determine the phytotoxicity of representative compounds with respect to healthy fresh plants. […] The test plants were sprayed in accordance with the procedure described above for the Mite Foliage Spray Test so as to deliver approximately 100 milliliters of test solution to the leaves of each plant tested. The sprayed plants and controls were set aside for approximately one hour to allow the foliage to dry and were then placed in the greenhouse. After ten days the plants were visually inspected to determine the extent of foliage injury. A rating of 1 indicates no perceptible injury; 5 indicates the plant was dead and ratings of 2, 3 and 4 indicate intermediate degrees of injury based upon the number and extent to which leaves were injured.
Description for Soy: as §5
Description for Tom: as §5

As to `CNC(=O)Oc1ccc(C(C)(C)C)cc1`, the LC50 in [1], in [2], in data set [3], in [4] and in data set [5] was above 500 µg/mL throughout.

`CN(SN(C)C(=O)Oc1ccc(C(C)(C)C)cc1)C(=O)Oc1ccc(C(C)(C)C)cc1`: the LC50 in [1], in data set [2], in [3], in data set [4] and in [5] was above 500 µg/mL each time.

As to `CC(C)c1cccc(OC(=O)N(C)SN(C)C(=O)Oc2cccc(C(C)C)c2)c1`, the LC50 is above 500 µg/mL in [1]; 70 µg/mL (≈ 168 µM) in [2]; 62 µg/mL (≈ 149 µM) in data set [3]; 11 µg/mL (≈ 26.4 µM) in data set [4]; 150 µg/mL (≈ 360 µM) in [5].

For `CN(SN(C)C(=O)Oc1cccc2ccccc12)C(=O)Oc1cccc2ccccc12`, the LC50 in data set [1] is above 500 µg/mL; in data set [2], above 500 µg/mL; in data set [3], 80 µg/mL (≈ 185 µM); in [4] it was 6 µg/mL (≈ 13.9 µM); in data set [5] it was above 500 µg/mL.

For `CNC(=O)ON=C1SC(C)(C)C(=O)N1C`, the LC50 in [1] amounted to 280 µg/mL (≈ 1210 µM); in data set [2] it was 160 µg/mL (≈ 692 µM); in data set [3] it was 30 µg/mL (≈ 130 µM); in [4], 6 µg/mL (≈ 25.9 µM); in data set [5] it was 25 µg/mL (≈ 108 µM).

With `CN(SN(C)C(=O)Oc1cccc2c1OC(C)(C)C2)C(=O)ON=C1CSCCS1` [XXIV, N-[2-O-(N-methylcarbamoyl)oximino-1,4-dithiane]N-[2,3-dihydro-2,2-dimethyl-7-(N-methylcarbamoyloxy)benzofuran]sulfide], the “Phytotoxicity: Bean” value in the data set with Bean is listed as 1. The “Phytotoxicity: Tom” value in the data set on Tom came to 1. For the same compound, in [6], the “Biological Activity: Nem (nematode, galling rating)” value (“Biological Activity: Nem” below) stood at 5. Also, the LD50 (in general, the dose at which mortality reaches 50%) in data set [7] is 20 mg/kg. Besides, the “Phytotoxicity: Corn” value in the data set with Corn turned out to be 1. In addition, the “Phytotoxicity: Soy” value in the data set with Soy came to 2. In the data set on Cotton, the “Phytotoxicity: Cotton” value came to 2.

`C#CCOc1ccccc1OC(=O)N(C)SN(C)C(=O)ON=C(C)SC` [XXXIX]: the “Phytotoxicity: Bean” value with Bean was determined as 1. The “Phytotoxicity: Tom” value with Tom was 1. In addition, the “Biological Activity: Nem” value in [6] is on record as 3. For the same compound, in data set [7], the LD50 is 160 mg/kg. The “Phytotoxicity: Corn” value with Corn is given as 1. Also, the “Phytotoxicity: Soy” value in the data set with Soy came out at 2. Besides, in the data set with Cotton, the “Phytotoxicity: Cotton” value turned out to be 2.

`CCCCCCCCCc1ccc(OC(=O)N(C)SN(C)C(=O)ON=C(C)SC)cc1` [XXXI]: the “Phytotoxicity: Bean” value in the data set with Bean came to 1. Moreover, the “Phytotoxicity: Tom” value in the data set with Tom amounted to 1. Also, the “Biological Activity: Nem” value in data set [6] was found to be 5. Further, the LD50 in data set [7] is above 640 mg/kg. For the same compound, the “Phytotoxicity: Corn” value in the data set on Corn was 1. The “Phytotoxicity: Soy” value in the data set with Soy came to 1. In addition, the “Phytotoxicity: Cotton” value in the data set with Cotton stood at 1.

Regarding `CSC(C)=NOC(=O)N(C)SN(C)C(=O)Oc1ccccc1C1SCCS1` [XXXVI], in the data set on Bean, the “Phytotoxicity: Bean” value came to 1. For the same compound, the “Phytotoxicity: Tom” value in the data set on Tom was found to be 1. Further, in [6], the “Biological Activity: Nem” value was found to be 4. The LD50 in [7] came out at 50.4 mg/kg. Further, the “Phytotoxicity: Corn” value with Corn worked out at 1. Further, the “Phytotoxicity: Soy” value in the data set on Soy is recorded as 1. Besides, the “Phytotoxicity: Cotton” value with Cotton is listed as 1.

As to `CSC(C)=NOC(=O)N(C)SN(C)C(=O)ON=C(C)SCCC#N` [X], the “Phytotoxicity: Bean” value in the data set with Bean stood at 1. Further, the “Phytotoxicity: Tom” value with Tom is 1. Besides, the “Biological Activity: Nem” value in data set [6] amounted to 1. Besides, the LD50 in data set [7] was found to be 67.3 mg/kg. Also, the “Phytotoxicity: Corn” value with Corn was 1. In the data set on Soy, the “Phytotoxicity: Soy” value amounted to 1. The “Phytotoxicity: Cotton” value in the data set on Cotton is 2.

As for `CSC(C)=NOC(=O)N(C)SN(C)C(=O)Oc1ccc(C(C)(C)C)cc1` [drawing 80], the LC50 in data set [1] is above 500 µg/mL; in data set [2] it was 40 µg/mL (≈ 100 µM); in data set [3], 7 µg/mL (≈ 17.5 µM); in [4], 9 µg/mL (≈ 22.5 µM); in data set [5] it was 35 µg/mL (≈ 87.6 µM).

Consider `CSC(C)=NOC(=O)N(C)SN(C)C(=O)Oc1cccc(C(C)C)c1` [drawing 83], for which the LC50 stood at 500 µg/mL (≈ 1300 µM) in data set [1]; 50 µg/mL (≈ 130 µM) in [2]; 9 µg/mL (≈ 23.3 µM) in [3]; 9 µg/mL (≈ 23.3 µM) in [4]; 15 µg/mL (≈ 38.9 µM) in data set [5].

Regarding `CSC(C)=NOC(=O)N(C)SN(C)C(=O)Oc1cccc2ccccc12` [drawing 86], the LC50 in data set [1] worked out at 500 µg/mL (≈ 1270 µM); in data set [2], 8 µg/mL (≈ 20.3 µM); in [3], 6 µg/mL (≈ 15.2 µM); in data set [4], 3 µg/mL (≈ 7.62 µM); in data set [5], 24 µg/mL (≈ 61 µM).

For the compound `CN(SN(C)C(=O)ON=C1SC(C)(C)C(=O)N1C)C(=O)ON=C1CSCCS1` [drawing 88], the LC50 in data set [1] is 6 µg/mL (≈ 12.8 µM); in data set [2], above 500 µg/mL; in [3], 29 µg/mL (≈ 62 µM); in data set [4], 22 µg/mL (≈ 47 µM); in data set [5], 2 µg/mL (≈ 4.28 µM).

In the case of “N-[1-Methylthioacetaldehyde O-(N-methylcarbamoyl)oxime]N-[3-(and 4)-isopropylphenyl-(N-methylcarbamoyloxy)]sulfide [XVII]”, the “Phytotoxicity: Bean” value with Bean is reported as 1. The “Phytotoxicity: Tom” value in the data set with Tom was found to be 1. The “Biological Activity: Nem” value in [6] is given as 4. The “A.O. Rat LD50” value in the data set with rat is given as 126.0 Mg/Kg. Also, in the data set on Corn, the “Phytotoxicity: Corn” value amounted to 1. In addition, the “Phytotoxicity: Soy” value with Soy was 1. Besides, the “Phytotoxicity: Cotton” value in the data set with Cotton was determined as 1.

These data come from patent US4551472A, “Unsymmetrical bis-carbamate compounds” (priority 1984, dated 1985).
